Source: article PMC3821527 (Bioorganic & medicinal chemistry letters, 2013)

Key:
AAC(6′)-Ib [1] = target: T1, AAC(6′)-Ib (Klebsiella pneumoniae, UniProt P19650); test: AAC; type: biochemical; conditions: for inhibition of the acetylation of kanamycin A: 100 μM compound, 18 μM kanamycin A, 50 μM acetyl CoA, 10% DMSO
AAC(6′)-Ib [2] = target: T1, AAC(6′)-Ib; test: AAC; type: biochemical; conditions: Lineweaver-Burk plots; for mode of inhibition with respect to acetyl CoA: variable acetyl CoA; for mode of inhibition with respect to kanamycin A: variable kanamycin A

T1 sequence (P19650 whole entry): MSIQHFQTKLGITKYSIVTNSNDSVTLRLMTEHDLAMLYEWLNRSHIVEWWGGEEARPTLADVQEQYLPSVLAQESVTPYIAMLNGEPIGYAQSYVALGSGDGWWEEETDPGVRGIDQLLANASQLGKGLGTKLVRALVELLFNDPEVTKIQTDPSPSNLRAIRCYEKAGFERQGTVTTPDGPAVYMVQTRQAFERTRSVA

| SMILES | inhibition of the acetylation of kanamycin A (AAC(6′)-Ib [1]) | mode of inhibition with respect to acetyl CoA (AAC(6′)-Ib [2]) | mode of inhibition with respect to kanamycin A (AAC(6′)-Ib [2]) | inhibitory activity in the presence of 0.01% Triton X-100 (AAC(6′)-Ib [1]; 0.01% Triton X-100, to rule out non-specific protein aggregation) |
| --- | --- | --- | --- | --- |
| Cc1cccc(N2C(=O)/C(=C/c3ccccc3OCc3ccc(C(=O)O)cc3)C(=O)NC2=S)c1 [Compound 1, 4-[(2-{[1-(3-methylphenyl)-4,6-dioxo-2-thioxotetrahydro-5(2H)-pyrimidinylidene]methyl}phenoxy)methyl]benzoic acid] | modest inhibition | noncompetitive | competitive | – |
| O=C(O)c1ccccc1-c1ccc(C=C2C(=O)N(c3ccccc3)C(=S)N(c3ccccc3)C2=O)o1 [Compound 2, 2-{5-[(4,6-dioxo-1,3-diphenyl-2-thioxotetrahydro-5(2H)-pyrimidinylidene)methyl]-2-furyl}benzoic acid] | significant inhibition | noncompetitive | competitive | – |
| O=C1NC(=O)N(c2ccc(Cl)cc2)C(=O)/C1=C\c1ccco1 [Compound 2b, 1-(4-chlorophenyl)-5-(2-furylmethylene)-2,4,6(1H,3H,5H)-pyrimidinetrione] | weaker inhibition | – | – | – |
| O=C1C(=Cc2ccco2)C(=O)N(c2ccccc2)C(=S)N1c1ccccc1 [Compound 2c] | lack of activity | – | – | – |
| O=C1C(=Cc2ccco2)C(=O)N(c2ccccc2)C(=O)N1c1ccccc1 [Compound 2d] | lack of activity | – | – | – |
| O=C1/C(=C/c2ccco2)C(=O)N(c2ccc(Br)cc2)C(=S)N1c1ccccc1 [Compound 5309471] | – | – | – | did not show the same level of inhibitory activity |
